This is an account of results in patent US6607522B1, “Methods for tissue welding using laser-activated protein solders” (General Hospital Corporation, priority 2000, dated 2003).

The conditions of series [1]: in vitro; cited from earlier work.
Series [2] has as its system 5 mm incision on equatorial sclera of human cadaveric eyes. Description: Leaking pressure of laser-welded scleral incisions in cadaveric eyes. From the text: Welding Procedure: To measure leaking pressures, an 18-gauge butterfly needle was connected by plastic tubing to a water bottle. The inner pressure in the bottle was controlled by a hand-pumped sphygmomanometer. Nonpreserved cadaveric eyes were defrosted in room-temperature water. The butterfly needle was inserted in the vitreous cavity through equatorial sclera, and the eye was pressurized to 25 to 30 mm Hg. The corneal epithelium was then removed at the wound site, and a caliper set on 5 mm used to make the extent of the incision on equatorial sclera, perpendicular to the limbus. All incisions were placed equidistant from the limbus, and areas of blue or thin sclera were avoided. […] The exact power output of the fiber was measured using a power meter (model 210; Coherent, Palo Alto, Calif.). Argon laser goggles (Glendale Protective Technologies, Lakeland, Fla.) were worn, which allowed viewing of the fluorescence from the Ce6 (emission 670 nm). To set the remaining adhesive on the scleral surface, which surrounded the wound, additional laser was applied until loss of fluorescence of the dye, which took another 30 to 45 seconds.
Leaking Pressure: Leaking pressures were then measured using the sphygmomanometer, which was increasingly pressurized in approximately 10-mm Hg increments. Leaking pressure was recorded the moment the wound leaked air or fluid. […]

With `CC1(C)C(/C=C/C=C/C=C/C=C2\N(CCCCS(=O)(=O)O)c3ccc4ccccc4c3C2(C)C)=[N+](CCCCS(=O)(=O)[O-])c2ccc3ccccc3c21` [indocyanine green], the triplet yield in series [1] was 0.11.

In the case of “BSA − Ce6 conjugate: Covalent bovine serum albumin-chlorin e6 conjugate solder; protein 5.2 mM, Ce6 6.2 mM, ratio 0.84”, in series [2] (argon blue-green laser 488-514 nm, total energy 24-57 J, 60-120 s, mean ± spread), the “Mean Leaking Pressure” value is 78.0 ± 11.9 millimeters of mercury. Moreover, the “Mean Leaking Pressure/Total Energy Ratio” value in series [2] (leaking pressure in mm Hg, total energy in joules) is given as 1.75 ± 0.26.
